Experimental data: ChEMBL document CHEMBL4304811, “Development of a Water-Soluble Indolylmaleimide Derivative IM-93 Showing Dual Inhibition of Ferroptosis and NETosis” (ACS Med Chem Lett, 2019)
Activity calls are given as the source filed them. No cut-off for these calls is given here.

Assays:
[1] = tested on: Tyrosine-protein kinase ABL1 (Homo sapiens), P00519 [F317L]; test: Binding affinity to human phosphorylated ABL1 F317L mutant (S229 to K512 residues) expressed in mammalian expression system assessed as residual binding level at 10 uM by Kinomescan method relative to control
[2] = biological target: Aurora kinase B (Homo sapiens) (UniProt Q96GD4); test: Binding affinity to wild-type human partial length AURKB (D25 to A303 residues) expressed in mammalian expression system assessed as residual binding level at 10 uM by Kinomescan method relative to control
[3] = biological target: Calcium/calmodulin-dependent protein kinase type 1 (Homo sapiens) (UniProt Q14012); test: Binding affinity to wild-type human full length CAMK1 (M1 to L370 residues) expressed in bacterial expression system assessed as residual binding level at 10 uM by Kinomescan method relative to control
[4] = biological target: Cyclin-dependent kinase-like 5 (Homo sapiens) (UniProt O76039); test: Binding affinity to wild-type human partial length CDKL5 (M1 to S337 residues) expressed in mammalian expression system assessed as residual binding level at 10 uM by Kinomescan method relative to control
[5] = biological target: Dual specificity protein kinase CLK2 (Homo sapiens) (UniProt P49760); test: Binding affinity to wild-type human partial length CLK2 (D144 to R498 residues) expressed in bacterial expression system assessed as residual binding level at 10 uM by Kinomescan method relative to control
[6] = biological target: Casein kinase I isoform gamma-3 (Homo sapiens) (UniProt Q9Y6M4); test: Binding affinity to wild-type human full length CSNK1G3 (M1 to K447 residues) expressed in bacterial expression system assessed as residual binding level at 10 uM by Kinomescan method relative to control
[7] = biological target: Serine/threonine-protein kinase DCLK2 (Homo sapiens) (UniProt Q8N568); test: Binding affinity to wild-type human partial length DCAMKL2 (K273 to V664 residues) expressed in bacterial expression system assessed as residual binding level at 10 uM by Kinomescan method relative to control
[8] = biological target: Tyrosine-protein kinase Fgr (Homo sapiens) (UniProt P09769); test: Binding affinity to wild-type human partial length FGR (L233 to T529 residues) expressed in bacterial expression system assessed as residual binding level at 10 uM by Kinomescan method relative to control
[9] = biological target: Tyrosine-protein kinase Fyn (Homo sapiens) (UniProt P06241); test: Binding affinity to wild-type human partial length FYN (T243 to L534 residues) expressed in bacterial expression system assessed as residual binding level at 10 uM by Kinomescan method relative to control
[10] = biological target: Insulin-like growth factor 1 receptor (Homo sapiens) (UniProt P08069); test: Binding affinity to wild-type human partial length IGF1R (L972 to D1294 residues) expressed in bacterial expression system assessed as residual binding level at 10 uM by Kinomescan method relative to control
[11] = biological target: Interleukin-1 receptor-associated kinase 4 (Homo sapiens) (UniProt Q9NWZ3); test: Binding affinity to wild-type human partial length IRAK4 (M1 to S460 residues) expressed in mammalian expression system assessed as residual binding level at 10 uM by Kinomescan method relative to control
[12] = biological target: Serine/threonine-protein kinase LATS2 (Homo sapiens) (UniProt Q9NRM7); test: Binding affinity to wild-type human partial length LATS2 (Q641 to V1088 residues) expressed in mammalian expression system assessed as residual binding level at 10 uM by Kinomescan method relative to control
[13] = biological target: Dual specificity mitogen-activated protein kinase kinase 2 (Homo sapiens) (UniProt P36507); test: Binding affinity to wild-type human full length MEK2 (M1 to V400 residues) expressed in mammalian expression system assessed as residual binding level at 10 uM by Kinomescan method relative to control
[14] = biological target: Phosphatidylinositol 4-phosphate 3-kinase C2 domain-containing subunit beta (Homo sapiens) (UniProt O00750); test: Binding affinity to wild-type human partial length PIK3C2B (M1 to L1634 residues) expressed in mammalian expression system assessed as residual binding level at 10 uM by Kinomescan method relative to control
[15] = tested on: Phosphatidylinositol 4,5-bisphosphate 3-kinase catalytic subunit alpha isoform (Homo sapiens), P42336 [Q546K]; test: Binding affinity to human partial length PIK3CA Q546K mutant (R108 to N1068 residues) expressed in mammalian expression system assessed as residual binding level at 10 uM by Kinomescan method relative to control
[16] = biological target: Serine/threonine-protein kinase PknB (Mycobacterium tuberculosis) (UniProt P9WI81); test: Binding affinity to wild-type Mycobacterium tuberculosis partial length PKNB (M1 to G279 residues) expressed in mammalian expression system assessed as residual binding level at 10 uM by Kinomescan method relative to control
[17] = biological target: cGMP-dependent protein kinase 2 (Homo sapiens) (UniProt Q13237); test: Binding affinity to wild-type human partial length PRKG2 (S422 to F762 residues) expressed in mammalian expression system assessed as residual binding level at 10 uM by Kinomescan method relative to control
[18] = biological target: Dual serine/threonine and tyrosine protein kinase (Homo sapiens) (UniProt Q6XUX3); test: Binding affinity to wild-type human full length RIPK5 (M1 to T929 residues) expressed in mammalian expression system assessed as residual binding level at 10 uM by Kinomescan method relative to control
[19] = biological target: Ribosomal protein S6 kinase alpha-4 (Homo sapiens) (UniProt O75676); test: Binding affinity to wild-type human partial length C-terminal RPS6KA4 kinase domain 2 (M375 to T705 residues) expressed in mammalian expression system assessed as residual binding level at 10 uM by Kinomescan method relative to control
[20] = biological target: Serine/threonine-protein kinase TBK1 (Homo sapiens) (UniProt Q9UHD2); test: Binding affinity to wild-type human full length TBK1 (M1 to L729 residues) expressed in mammalian expression system assessed as residual binding level at 10 uM by Kinomescan method relative to control
[21] = biological target: High affinity nerve growth factor receptor (Homo sapiens) (UniProt P04629); test: Binding affinity to wild-type human partial length TRKA (G475 to G790 residues) expressed in mammalian expression system assessed as residual binding level at 10 uM by Kinomescan method relative to control
[22] = biological target: Dual specificity protein kinase TTK (Homo sapiens) (UniProt P33981); test: Binding affinity to wild-type human partial length TTK (N505 to V798 residues) expressed in bacterial expression system assessed as residual binding level at 10 uM by Kinomescan method relative to control
[23] = biological target: Serine/threonine-protein kinase VRK2 (Homo sapiens) (UniProt Q86Y07); test: Binding affinity to wild-type human partial length VRK2 (M1 to T336 residues) expressed in mammalian expression system assessed as residual binding level at 10 uM by Kinomescan method relative to control
THP-1 = test: Inhibition of Staphylococcus aureus-induced pyroptosis in human THP1 cells at 10 uM preincubated for 1 hr followed by bacterial infection and measured after 2 hrs by INT dye based LDH assay; format: functional, cell-based

Chain of Tyrosine-protein kinase ABL1 (Homo sapiens), P00519 [F317L] (P00519 whole entry F317L, the tested form may be a part): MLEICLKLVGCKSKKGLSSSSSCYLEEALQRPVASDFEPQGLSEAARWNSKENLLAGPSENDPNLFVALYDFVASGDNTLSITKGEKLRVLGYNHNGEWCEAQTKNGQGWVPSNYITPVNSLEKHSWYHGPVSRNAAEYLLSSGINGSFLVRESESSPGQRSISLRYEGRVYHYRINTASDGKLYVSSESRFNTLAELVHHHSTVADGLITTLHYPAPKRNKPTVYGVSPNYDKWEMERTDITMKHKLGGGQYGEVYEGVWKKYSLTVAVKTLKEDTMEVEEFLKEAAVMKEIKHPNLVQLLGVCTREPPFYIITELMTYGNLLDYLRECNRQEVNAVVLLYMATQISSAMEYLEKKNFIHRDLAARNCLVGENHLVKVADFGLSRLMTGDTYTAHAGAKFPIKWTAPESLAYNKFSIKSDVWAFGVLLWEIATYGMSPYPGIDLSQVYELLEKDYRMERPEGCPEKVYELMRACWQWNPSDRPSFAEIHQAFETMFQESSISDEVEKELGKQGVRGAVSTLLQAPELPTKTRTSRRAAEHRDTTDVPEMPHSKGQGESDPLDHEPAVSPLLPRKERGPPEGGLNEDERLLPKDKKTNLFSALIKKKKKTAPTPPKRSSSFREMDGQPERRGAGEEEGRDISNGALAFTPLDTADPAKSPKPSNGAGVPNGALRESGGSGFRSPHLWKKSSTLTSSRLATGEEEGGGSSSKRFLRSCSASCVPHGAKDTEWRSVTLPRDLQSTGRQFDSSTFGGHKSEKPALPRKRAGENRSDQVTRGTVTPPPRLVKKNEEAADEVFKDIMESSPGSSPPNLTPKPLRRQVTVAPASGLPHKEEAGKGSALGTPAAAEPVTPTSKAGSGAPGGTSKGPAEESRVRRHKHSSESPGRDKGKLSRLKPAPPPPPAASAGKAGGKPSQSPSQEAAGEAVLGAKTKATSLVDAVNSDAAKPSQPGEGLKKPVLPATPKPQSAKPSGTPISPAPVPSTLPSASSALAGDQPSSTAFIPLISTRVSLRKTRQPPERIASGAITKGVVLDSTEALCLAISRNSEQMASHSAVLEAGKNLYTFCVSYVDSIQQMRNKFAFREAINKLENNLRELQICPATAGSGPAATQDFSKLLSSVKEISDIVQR
Chain of Tyrosine-protein kinase Fyn (Homo sapiens) (P06241 2-537 limits assumed): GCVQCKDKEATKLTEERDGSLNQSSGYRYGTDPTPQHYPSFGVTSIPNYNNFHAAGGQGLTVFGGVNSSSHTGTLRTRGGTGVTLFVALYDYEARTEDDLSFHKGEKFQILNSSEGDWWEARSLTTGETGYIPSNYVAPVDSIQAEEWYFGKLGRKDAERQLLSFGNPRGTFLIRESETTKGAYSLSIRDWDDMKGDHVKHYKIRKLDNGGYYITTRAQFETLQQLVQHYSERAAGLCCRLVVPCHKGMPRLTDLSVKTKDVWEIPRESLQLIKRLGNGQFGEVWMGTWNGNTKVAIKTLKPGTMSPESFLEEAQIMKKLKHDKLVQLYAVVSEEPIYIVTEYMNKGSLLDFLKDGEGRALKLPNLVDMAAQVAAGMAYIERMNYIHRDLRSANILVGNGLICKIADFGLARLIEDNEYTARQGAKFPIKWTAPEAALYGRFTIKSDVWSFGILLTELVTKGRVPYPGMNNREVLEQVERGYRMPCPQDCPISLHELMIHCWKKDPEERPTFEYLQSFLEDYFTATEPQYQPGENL
Chain of Cyclin-dependent kinase-like 5 (Homo sapiens) (O76039 whole entry, the tested form may be a part): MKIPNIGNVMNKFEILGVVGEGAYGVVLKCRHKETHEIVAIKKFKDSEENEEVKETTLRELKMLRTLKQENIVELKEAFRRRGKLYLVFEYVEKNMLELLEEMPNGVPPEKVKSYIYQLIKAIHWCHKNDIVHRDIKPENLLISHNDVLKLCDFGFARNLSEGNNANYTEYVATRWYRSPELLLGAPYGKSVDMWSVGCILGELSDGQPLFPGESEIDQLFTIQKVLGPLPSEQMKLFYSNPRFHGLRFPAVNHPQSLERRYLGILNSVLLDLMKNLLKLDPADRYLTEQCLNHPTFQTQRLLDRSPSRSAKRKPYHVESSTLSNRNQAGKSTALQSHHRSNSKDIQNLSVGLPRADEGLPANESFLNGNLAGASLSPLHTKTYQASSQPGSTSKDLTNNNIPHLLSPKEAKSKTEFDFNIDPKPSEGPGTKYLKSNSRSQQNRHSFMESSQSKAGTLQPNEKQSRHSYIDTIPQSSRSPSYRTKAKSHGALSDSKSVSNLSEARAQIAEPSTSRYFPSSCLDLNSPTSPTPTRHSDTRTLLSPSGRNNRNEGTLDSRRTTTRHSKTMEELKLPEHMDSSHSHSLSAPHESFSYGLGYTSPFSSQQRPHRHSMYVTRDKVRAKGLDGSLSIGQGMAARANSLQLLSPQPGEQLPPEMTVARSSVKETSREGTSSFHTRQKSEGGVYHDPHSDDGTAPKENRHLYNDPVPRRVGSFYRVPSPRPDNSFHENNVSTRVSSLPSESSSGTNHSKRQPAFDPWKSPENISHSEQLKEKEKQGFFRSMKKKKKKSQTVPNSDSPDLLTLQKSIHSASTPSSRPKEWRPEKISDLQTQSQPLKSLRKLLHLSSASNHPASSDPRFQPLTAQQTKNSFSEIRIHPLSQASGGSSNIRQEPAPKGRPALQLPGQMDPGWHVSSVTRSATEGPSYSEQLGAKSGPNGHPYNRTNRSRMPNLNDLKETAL
Chain of Dual specificity mitogen-activated protein kinase kinase 2 (Homo sapiens) (P36507 whole entry, the tested form may be a part): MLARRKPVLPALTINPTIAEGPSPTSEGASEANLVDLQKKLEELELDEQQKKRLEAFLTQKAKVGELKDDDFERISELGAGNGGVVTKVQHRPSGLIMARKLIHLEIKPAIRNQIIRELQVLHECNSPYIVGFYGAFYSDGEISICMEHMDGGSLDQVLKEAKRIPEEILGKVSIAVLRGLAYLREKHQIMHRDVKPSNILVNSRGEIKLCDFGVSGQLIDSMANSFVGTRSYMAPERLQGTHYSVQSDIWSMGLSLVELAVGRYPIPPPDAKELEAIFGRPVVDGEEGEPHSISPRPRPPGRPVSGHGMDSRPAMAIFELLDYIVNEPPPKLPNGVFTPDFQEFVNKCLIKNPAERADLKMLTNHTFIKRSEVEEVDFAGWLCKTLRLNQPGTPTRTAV
Chain of Dual serine/threonine and tyrosine protein kinase (Homo sapiens) (Q6XUX3 whole entry, the tested form may be a part): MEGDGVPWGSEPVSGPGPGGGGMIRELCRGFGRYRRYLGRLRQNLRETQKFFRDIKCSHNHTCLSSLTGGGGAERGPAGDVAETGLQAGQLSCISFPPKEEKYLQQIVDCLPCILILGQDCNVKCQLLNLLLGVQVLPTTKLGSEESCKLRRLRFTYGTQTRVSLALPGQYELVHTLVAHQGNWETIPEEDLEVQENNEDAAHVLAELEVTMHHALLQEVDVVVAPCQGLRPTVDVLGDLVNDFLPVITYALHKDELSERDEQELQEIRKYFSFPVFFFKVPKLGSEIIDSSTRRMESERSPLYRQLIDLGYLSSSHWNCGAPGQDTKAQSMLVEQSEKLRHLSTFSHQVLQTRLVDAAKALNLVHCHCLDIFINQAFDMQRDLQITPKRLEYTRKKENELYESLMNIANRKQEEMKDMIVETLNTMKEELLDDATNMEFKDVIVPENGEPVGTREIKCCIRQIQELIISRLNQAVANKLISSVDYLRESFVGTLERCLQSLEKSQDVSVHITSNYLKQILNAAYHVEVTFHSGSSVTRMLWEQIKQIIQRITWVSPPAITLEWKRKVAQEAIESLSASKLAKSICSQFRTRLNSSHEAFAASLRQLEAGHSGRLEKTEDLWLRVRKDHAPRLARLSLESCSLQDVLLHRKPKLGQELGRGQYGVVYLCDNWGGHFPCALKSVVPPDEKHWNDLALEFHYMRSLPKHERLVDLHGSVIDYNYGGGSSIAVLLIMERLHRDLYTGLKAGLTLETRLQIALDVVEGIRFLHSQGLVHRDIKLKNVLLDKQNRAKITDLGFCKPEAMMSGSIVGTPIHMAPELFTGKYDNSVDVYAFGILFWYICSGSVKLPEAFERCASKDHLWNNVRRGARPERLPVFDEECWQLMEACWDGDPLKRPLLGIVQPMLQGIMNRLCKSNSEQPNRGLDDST
Chain of Dual specificity protein kinase CLK2 (Homo sapiens) (P49760 whole entry, looked up, the tested form may be a part, canonical isoform): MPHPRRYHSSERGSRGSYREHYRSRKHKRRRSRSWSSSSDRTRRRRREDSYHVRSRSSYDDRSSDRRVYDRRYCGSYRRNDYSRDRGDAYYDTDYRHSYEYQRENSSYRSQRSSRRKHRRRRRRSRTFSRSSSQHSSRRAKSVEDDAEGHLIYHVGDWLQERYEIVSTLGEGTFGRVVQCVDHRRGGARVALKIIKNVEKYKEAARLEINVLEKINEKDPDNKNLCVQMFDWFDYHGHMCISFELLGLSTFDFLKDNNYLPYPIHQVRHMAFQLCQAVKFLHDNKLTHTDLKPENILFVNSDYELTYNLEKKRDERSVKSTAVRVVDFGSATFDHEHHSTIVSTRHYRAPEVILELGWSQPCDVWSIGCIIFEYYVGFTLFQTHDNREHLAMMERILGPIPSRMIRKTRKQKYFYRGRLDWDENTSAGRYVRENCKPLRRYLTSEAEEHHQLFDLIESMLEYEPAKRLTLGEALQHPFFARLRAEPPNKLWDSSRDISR
Chain of Casein kinase I isoform gamma-3 (Homo sapiens) (Q9Y6M4 whole entry, looked up, the tested form may be a part, canonical isoform): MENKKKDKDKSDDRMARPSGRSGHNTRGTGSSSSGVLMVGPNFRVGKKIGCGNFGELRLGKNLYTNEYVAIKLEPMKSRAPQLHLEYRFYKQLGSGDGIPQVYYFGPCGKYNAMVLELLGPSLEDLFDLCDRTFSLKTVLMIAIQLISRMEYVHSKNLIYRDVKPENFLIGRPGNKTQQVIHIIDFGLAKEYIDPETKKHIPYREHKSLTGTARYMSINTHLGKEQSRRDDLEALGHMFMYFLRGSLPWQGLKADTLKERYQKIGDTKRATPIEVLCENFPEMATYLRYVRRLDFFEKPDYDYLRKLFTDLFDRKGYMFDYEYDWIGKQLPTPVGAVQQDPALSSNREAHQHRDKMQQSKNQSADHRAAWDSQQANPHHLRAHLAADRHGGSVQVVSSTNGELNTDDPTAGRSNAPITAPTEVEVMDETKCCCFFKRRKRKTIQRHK

CC(C)N1C(=O)C(NCCCN(C)C)=C(c2cn(C)c3ccccc23)C1=O.Cl
Activity [1]: 83%
Activity [2]: 84%
Activity [3]: 100%
Activity [4]: 96%
Activity [5]: 90%
Activity [6]: 96%
Activity [7]: 94%
Activity [8]: 82%
Activity [9]: 100%
Activity [10]: 80%
Activity [11]: 74%
Activity [12]: 88%
Activity [13]: 94%
Activity [14]: 81%
Activity [15]: 100%
Activity [16]: 91%
Activity [17]: 88%
Activity [18]: 100%
Activity [19]: 74%
Activity [20]: 73%
Activity [21]: 100%
Activity [22]: 100%
Activity [23]: 95%
inhibition (THP-1): inactive
